Series [1] in a line: Toxicity in iv dosed mouse measured for 24 hrs. The series is classed as organism-based. To be noted: in vivo.
A short description of series [2]: Toxicity in po dosed mouse measured for 24 hrs. Type of series: organism-based. To be noted: in vivo.

This passage reports LD50 results from ChEMBL document CHEMBL4732126, “Design, synthesis, and biodistribution studies of new analogues of marine alkaloids: Potent in vitro and in vivo fungicidal agents against Candida spp” (Eur J Med Chem, 2021).

Consider `COc1cc2c(cc1OC)[C@@H]1N(C)Cc3c(cc(OC)c4c3OCO4)[C@]1(C)[C@H](O)C2`, for which the LD50 (commonly the dose at which mortality reaches 50%) at 24 h in series [1] is 41.6 mg/kg; in series [2] it was 800 mg/kg.
